Test in all cases: KINOMEscan (ScanMAX) kinase profiling
Holding throughout (assay type): binding

Experiment [1] deals with T1, panel of 468 kinases (Homo sapiens, UniProt P00519, F317I).
T1 construct: purchased KINOMEscan (ScanMAX) service
The note with it: 1 μM, read-out: % control.

Experiment [2] addresses T2, panel of 468 kinases (Homo sapiens, UniProt P00519, Q252H).
T2 construct: purchased KINOMEscan (ScanMAX) service
As to conditions: 1 μM, read-out: % control.

The target of experiment [3] is T3, panel of 468 kinases (Homo sapiens, UniProt P08581).
T3 construct: purchased KINOMEscan (ScanMAX) service
As to conditions: MET; 1 μM; read-out: % control.

Experiment [4] addresses T4, panel of 468 kinases (Homo sapiens, UniProt P10721, V559D).
T4 construct: purchased KINOMEscan (ScanMAX) service
As to conditions: KIT(V559D); 1 μM; read-out: % control.

In experiment [5] the target is T5, panel of 468 kinases (Homo sapiens, UniProt P41743).
T5 construct: purchased KINOMEscan (ScanMAX) service
T5 sequence (P41743 1-596): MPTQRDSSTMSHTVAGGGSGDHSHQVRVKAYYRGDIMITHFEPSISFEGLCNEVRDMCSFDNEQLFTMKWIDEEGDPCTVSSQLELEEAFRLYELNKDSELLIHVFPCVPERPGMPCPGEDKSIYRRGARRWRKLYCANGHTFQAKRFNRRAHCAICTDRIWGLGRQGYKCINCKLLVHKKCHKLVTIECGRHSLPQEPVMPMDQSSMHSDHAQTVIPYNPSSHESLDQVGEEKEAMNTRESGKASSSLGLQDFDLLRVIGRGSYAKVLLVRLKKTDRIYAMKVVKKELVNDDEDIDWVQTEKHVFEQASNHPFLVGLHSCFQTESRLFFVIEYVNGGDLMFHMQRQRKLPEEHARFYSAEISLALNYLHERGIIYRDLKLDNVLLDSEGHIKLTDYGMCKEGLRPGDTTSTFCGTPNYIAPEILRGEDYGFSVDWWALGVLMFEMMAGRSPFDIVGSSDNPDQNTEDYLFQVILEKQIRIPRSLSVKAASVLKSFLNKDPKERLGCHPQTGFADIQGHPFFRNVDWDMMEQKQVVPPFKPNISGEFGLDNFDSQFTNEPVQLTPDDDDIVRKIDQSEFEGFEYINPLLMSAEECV
The note with it: PRKCI; 1 μM; read-out: % control.

The target of experiment [6] is T6, panel of 468 kinases (Homo sapiens, UniProt P42679).
T6 construct: purchased KINOMEscan (ScanMAX) service
T6 sequence (P42679 1-507): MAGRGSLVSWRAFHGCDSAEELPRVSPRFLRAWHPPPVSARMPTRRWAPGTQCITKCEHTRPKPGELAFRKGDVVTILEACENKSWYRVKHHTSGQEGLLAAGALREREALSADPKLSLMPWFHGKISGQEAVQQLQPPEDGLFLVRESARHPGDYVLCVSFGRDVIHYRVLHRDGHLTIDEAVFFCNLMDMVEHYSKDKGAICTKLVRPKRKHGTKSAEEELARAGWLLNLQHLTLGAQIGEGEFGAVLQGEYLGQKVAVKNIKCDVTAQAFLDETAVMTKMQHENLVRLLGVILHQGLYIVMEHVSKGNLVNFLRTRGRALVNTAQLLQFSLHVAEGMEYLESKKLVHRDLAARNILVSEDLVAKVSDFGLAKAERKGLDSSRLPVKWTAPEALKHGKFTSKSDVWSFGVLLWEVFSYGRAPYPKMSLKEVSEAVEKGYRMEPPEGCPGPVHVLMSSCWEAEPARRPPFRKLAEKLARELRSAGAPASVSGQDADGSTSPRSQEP
As to conditions: CTK; 1 μM; read-out: % control.

Experiment [7] concerns the target T7, panel of 468 kinases (Homo sapiens, UniProt P51617).
T7 construct: purchased KINOMEscan (ScanMAX) service
As to conditions: IRAK1; 1 μM; read-out: % control.

Experiment [8] addresses T8, panel of 468 kinases (Homo sapiens, UniProt Q86UX6).
T8 construct: purchased KINOMEscan (ScanMAX) service
The note with it: YANK3; 1 μM; read-out: % control.

Experiment [9] has as its target T9, panel of 468 kinases (Homo sapiens, UniProt Q8TD08).
T9 construct: purchased KINOMEscan (ScanMAX) service
T9 sequence (Q8TD08 1-544): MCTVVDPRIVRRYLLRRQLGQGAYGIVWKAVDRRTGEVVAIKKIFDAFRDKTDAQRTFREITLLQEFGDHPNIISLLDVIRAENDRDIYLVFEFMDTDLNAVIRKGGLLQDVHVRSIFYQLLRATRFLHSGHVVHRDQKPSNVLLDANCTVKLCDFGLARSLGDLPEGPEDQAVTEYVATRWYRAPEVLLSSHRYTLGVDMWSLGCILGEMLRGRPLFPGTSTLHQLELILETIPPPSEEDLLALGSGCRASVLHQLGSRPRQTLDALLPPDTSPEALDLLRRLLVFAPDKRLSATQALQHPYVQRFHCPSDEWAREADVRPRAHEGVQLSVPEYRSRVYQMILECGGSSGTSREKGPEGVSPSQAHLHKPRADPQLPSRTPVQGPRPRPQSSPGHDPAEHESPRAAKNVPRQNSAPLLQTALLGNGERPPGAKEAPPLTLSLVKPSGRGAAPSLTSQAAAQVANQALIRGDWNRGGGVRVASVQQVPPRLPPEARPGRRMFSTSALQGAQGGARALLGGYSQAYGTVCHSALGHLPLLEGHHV
The note with it: ERK8; 1 μM; read-out: % control.

Read-outs that look alike come from different tables or passages of the source.

T8 sequence (Q86UX6 whole entry): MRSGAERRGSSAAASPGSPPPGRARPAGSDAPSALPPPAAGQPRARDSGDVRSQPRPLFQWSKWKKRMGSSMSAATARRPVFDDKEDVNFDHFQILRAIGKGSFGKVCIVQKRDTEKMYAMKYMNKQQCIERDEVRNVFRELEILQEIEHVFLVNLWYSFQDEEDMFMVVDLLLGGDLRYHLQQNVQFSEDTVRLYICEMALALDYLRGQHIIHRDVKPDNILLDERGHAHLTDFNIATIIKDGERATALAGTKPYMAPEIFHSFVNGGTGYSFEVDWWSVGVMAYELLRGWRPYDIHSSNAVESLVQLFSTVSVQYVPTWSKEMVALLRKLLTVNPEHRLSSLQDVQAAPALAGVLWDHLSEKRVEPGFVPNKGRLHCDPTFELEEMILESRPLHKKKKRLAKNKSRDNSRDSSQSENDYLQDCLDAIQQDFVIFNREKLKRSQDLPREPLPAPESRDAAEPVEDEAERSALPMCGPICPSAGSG
T4 sequence (P10721 26-976 V559D): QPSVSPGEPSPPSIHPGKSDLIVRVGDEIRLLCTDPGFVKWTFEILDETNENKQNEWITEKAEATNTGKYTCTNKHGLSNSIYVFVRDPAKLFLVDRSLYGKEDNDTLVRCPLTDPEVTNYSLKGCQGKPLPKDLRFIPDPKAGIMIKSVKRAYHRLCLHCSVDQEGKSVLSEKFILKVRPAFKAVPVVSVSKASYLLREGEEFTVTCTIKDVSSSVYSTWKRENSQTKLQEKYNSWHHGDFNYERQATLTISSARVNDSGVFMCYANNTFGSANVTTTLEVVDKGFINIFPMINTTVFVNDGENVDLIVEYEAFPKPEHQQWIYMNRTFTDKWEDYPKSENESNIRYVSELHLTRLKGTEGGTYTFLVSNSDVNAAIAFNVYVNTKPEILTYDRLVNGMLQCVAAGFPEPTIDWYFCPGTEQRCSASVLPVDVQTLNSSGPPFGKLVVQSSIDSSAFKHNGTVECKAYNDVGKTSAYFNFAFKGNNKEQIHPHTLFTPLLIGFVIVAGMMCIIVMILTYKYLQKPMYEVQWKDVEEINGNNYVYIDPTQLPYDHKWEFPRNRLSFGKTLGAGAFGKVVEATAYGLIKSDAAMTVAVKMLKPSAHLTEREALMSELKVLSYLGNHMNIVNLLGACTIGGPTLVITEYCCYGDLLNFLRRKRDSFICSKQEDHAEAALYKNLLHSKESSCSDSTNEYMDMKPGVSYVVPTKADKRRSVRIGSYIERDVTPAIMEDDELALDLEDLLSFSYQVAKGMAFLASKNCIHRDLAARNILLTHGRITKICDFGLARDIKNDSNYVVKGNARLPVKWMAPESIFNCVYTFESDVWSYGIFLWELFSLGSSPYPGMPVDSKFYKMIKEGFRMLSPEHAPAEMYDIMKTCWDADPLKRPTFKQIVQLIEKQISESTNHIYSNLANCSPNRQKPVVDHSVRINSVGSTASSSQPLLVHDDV
T7 sequence (P51617 whole entry): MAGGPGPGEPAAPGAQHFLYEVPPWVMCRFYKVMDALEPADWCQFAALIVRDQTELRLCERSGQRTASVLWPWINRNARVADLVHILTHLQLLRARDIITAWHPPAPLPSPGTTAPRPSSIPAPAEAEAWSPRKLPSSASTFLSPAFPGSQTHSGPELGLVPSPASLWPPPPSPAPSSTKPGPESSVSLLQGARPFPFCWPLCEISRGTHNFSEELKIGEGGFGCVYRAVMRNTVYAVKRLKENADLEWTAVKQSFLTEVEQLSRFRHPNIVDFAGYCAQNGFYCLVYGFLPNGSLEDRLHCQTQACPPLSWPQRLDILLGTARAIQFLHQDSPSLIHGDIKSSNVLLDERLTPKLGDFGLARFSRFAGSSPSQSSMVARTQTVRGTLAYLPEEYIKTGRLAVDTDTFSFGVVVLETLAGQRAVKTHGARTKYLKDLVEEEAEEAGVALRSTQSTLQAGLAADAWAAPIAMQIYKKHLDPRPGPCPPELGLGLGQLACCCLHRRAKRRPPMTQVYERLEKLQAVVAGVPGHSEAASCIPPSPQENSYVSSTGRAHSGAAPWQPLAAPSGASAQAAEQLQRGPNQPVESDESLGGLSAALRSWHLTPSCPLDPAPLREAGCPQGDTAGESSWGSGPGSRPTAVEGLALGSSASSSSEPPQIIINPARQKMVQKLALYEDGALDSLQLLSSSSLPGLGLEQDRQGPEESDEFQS
T3 sequence (P08581 25-1390): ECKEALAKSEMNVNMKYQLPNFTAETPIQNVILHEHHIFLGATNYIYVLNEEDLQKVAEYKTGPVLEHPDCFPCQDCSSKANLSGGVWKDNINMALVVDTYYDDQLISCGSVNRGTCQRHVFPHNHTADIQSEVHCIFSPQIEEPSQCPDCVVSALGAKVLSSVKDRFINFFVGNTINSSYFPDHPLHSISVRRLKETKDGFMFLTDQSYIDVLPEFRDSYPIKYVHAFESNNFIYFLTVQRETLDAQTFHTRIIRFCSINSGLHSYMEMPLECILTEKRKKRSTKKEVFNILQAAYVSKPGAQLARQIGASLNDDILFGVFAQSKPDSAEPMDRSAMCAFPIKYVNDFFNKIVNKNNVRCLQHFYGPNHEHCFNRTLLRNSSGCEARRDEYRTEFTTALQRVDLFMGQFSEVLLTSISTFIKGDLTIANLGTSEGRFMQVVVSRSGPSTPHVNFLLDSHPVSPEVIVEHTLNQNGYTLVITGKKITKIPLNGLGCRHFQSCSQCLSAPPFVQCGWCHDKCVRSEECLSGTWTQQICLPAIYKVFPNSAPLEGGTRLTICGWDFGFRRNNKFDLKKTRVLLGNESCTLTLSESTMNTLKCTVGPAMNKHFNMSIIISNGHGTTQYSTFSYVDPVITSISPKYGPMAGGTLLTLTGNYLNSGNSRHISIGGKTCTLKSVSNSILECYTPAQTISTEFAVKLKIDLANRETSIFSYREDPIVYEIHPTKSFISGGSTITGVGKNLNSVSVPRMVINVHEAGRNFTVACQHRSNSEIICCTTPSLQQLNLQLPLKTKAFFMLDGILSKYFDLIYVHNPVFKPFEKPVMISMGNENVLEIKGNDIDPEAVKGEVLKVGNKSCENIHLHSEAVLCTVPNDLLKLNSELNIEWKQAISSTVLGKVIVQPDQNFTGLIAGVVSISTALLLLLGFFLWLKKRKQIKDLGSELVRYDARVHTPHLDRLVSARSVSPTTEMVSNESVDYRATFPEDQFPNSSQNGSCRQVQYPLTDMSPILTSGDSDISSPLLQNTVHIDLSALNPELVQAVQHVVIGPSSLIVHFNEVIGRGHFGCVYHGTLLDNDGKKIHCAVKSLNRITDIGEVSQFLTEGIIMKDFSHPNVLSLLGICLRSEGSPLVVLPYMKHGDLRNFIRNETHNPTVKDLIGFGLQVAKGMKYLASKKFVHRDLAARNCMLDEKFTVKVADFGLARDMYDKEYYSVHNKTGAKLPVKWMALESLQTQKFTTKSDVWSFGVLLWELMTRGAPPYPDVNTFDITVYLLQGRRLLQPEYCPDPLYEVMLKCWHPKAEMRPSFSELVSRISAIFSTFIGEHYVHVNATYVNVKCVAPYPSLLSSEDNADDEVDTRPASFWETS

On to `CNc1nc(Nc2ccc(C(=O)N3CCC(N4CCOCC4)CC3)c3c2OCO3)nc2[nH]cc(Cl)c12` [Compound 75, (7-((5-chloro-4-(methylamino)-7H-pyrrolo[2,3-d]pyrimidin-2-yl)amino)benzo[d][1,3]dioxol-4-yl)(4-morpholinopiperidin-1-yl)methanone], for which the remaining binding at 1 µM on panel of 468 kinases [1] (ABL1(F317I)-nonphosphorylated) came to 100%; on panel of 468 kinases [1] (ABL1(F317I)-phosphorylated), 83%; on panel of 468 kinases [2] (ABL1(Q252H)-nonphosphorylated) it was 100%; on panel of 468 kinases [2] (ABL1(Q252H)-phosphorylated) it was 57%; on panel of 468 kinases [3], 100%; on panel of 468 kinases [4], 39%. The remaining binding at 1 µM worked out at 65% on panel of 468 kinases [5]; 100% at panel of 468 kinases [6]; 51% at panel of 468 kinases [7]; 100% at panel of 468 kinases [8]; 100% on panel of 468 kinases [9].
For `CNc1nc(Nc2ccc(P3(=O)CCN(C4CCOCC4)CC3)cc2OC)nc2[nH]cc(Cl)c12` [Compound 77, 4-(4-((5-chloro-4-(methylamino)-7H-pyrrolo[2,3-d]pyrimidin-2-yl)amino)-3-methoxyphenyl)-1-(tetrahydro-2H-pyran-4-yl)-1,4-azaphosphinane 4-oxide], the remaining binding at 1 µM on panel of 468 kinases [1] (ABL1(F317I)-nonphosphorylated) was 100%; on panel of 468 kinases [1] (ABL1(F317I)-phosphorylated) it was 51%; at panel of 468 kinases [2] (ABL1(Q252H)-nonphosphorylated), 100%; on panel of 468 kinases [2] (ABL1(Q252H)-phosphorylated), 62%; on panel of 468 kinases [3] it was 100%; on panel of 468 kinases [4] it was 90%. Moreover, the remaining binding at 1 µM is 55% at panel of 468 kinases [5]; 99% on panel of 468 kinases [6]; 88% on panel of 468 kinases [7]; 100% on panel of 468 kinases [8]; 100% at panel of 468 kinases [9].
For the compound `CNc1nc(Nc2ccc(S(=O)(=O)N3CCC(N4CCOCC4)CC3)cc2OC)nc2[nH]cc(Cl)c12` [Compound 12, 5-chloro-N2-(2-methoxy-4-((4-morpholinopiperidin-1-yl)sulfonyl)phenyl)-N4-methyl-7H-pyrrolo[2,3-d]pyrimidine-2,4-diamine], the remaining binding at 1 µM on panel of 468 kinases [1] (ABL1(F317I)-nonphosphorylated) stood at 100%; at panel of 468 kinases [1] (ABL1(F317I)-phosphorylated), 54%; on panel of 468 kinases [2] (ABL1(Q252H)-nonphosphorylated), 100%; on panel of 468 kinases [2] (ABL1(Q252H)-phosphorylated), 79%; at panel of 468 kinases [3] it was 100%; at panel of 468 kinases [4], 80%. The remaining binding at 1 µM amounted to 54% at panel of 468 kinases [5]; 100% at panel of 468 kinases [6]; 92% at panel of 468 kinases [7]; 100% on panel of 468 kinases [8]; 100% at panel of 468 kinases [9].

Source of the values: patent publication US12479847B2 (DANA-FARBER CANCER INSTITUTE, INC., priority 2019, dated 2025).
